# From the METLIN SMRT retention time set (Domingo-Almenara et al. 2019)
# Test: gradient 5% acetonitrile 3 min, to 50% in 2 min, to 85% in 15 min, held 3 min, 100 µL/min
# Conditions: column: Zorbax Extend-C18 2.1 x 50 mm; eluents: water / acetonitrile, 0.1% formic acid
# How it was run: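 Over 3 months, pure standards in mixtures of ~100 molecules were run by HPLC coupled to a quadrupole time-of-flight mass spectrometer in positive and negative ionization mode. The column was a Zorbax Extend-C18 (2.1 × 50 mm, 1.8 μm) at 100 μL/min, eluted with water and acetonitrile each holding 0.1% formic acid, with 40 μL dead and 900 μL dwell volumes. Retention time was determined from adduct peaks chosen by software and checked manually.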
row,SMILES,RP-LC retention time [s]
1,CC(C)NCCCn1c(Sc2cc3c(cc2I)OCO3)nc2c(N)ncnc21,592
2,O=C(CCc1ccccc1)N1CCN(c2nc(CN3CCOCC3)cs2)CC1,624
3,Cc1ccc(CNC(=O)CCCN2C(=O)CCn3nc(-c4cccn4C)cc32)cc1,795
4,COc1cccc(CN2CC[C@@H]3CN(S(C)(=O)=O)[C@@H]3C2)c1OC,604
5,CCOC(=O)C(C(=O)NCCCN1CCOCC1)C1CCCCC1 (stereo not given),624
6,O=C(NC1CCCCC1)C1(CCO)CC12CCN(c1ncccn1)CC2 (stereo not given),651
7,CCNS(=O)(=O)c1ccc(Cl)c(-c2nnc(-c3ccccc3)o2)c1,919
8,COc1ccc(-c2cc3nn(CC(=O)Nc4ccc(C)cc4F)c(=O)n3c(C)n2)cc1,963
9,CCOc1ccc(-n2c(=O)c3sccc3n(Cc3nc(-c4cccc(C)c4)no3)c2=O)cc1,1100
10,CC(NC(=O)CCCn1c(=O)c2cccn2c2ccc(Br)cc21)C(=O)N1CCCCC1 (stereo not given),832
11,Cc1cccc(CNC(=O)C2CCCN(c3ccc4cc(S(=O)(=O)N5CCCC5)ccc4n3)C2)c1 (stereo not given),774
12,COC(=O)c1c(C)[nH]c(C(=O)N2CCC(CC(=O)NC(C)CCc3ccccc3)CC2)c1C (stereo not given),880
13,CCC1Oc2ccc(S(=O)(=O)N3CCC(C(=O)Nc4cccc(C)c4)CC3)cc2NC1=O (stereo not given),814
14,CC(C)(C)c1csc(-c2csc(S(=O)(=O)Nc3ccc(Br)cc3F)c2)n1,1330
15,COc1ccc(C(O)Cn2ccn3nc(-c4ccc(C(C)C)cc4)cc3c2=O)cc1 (stereo not given),1060
16,Cc1cc2c(cc1S(=O)(=O)N1CCCC1C(=O)NC1CCCCCC1)OC(C)C(=O)N2 (stereo not given),834
17,CCNc1cc(C)nc(N2CCN(C(=O)C(C)C)CC2)n1,598
18,CCCCc1ccc(NC(=O)Cn2cnc3c(sc4nc(-c5ccccc5)ccc43)c2=O)cc1,1260
19,O=C(Cn1nc2n(c1=O)CCCCC2)NCc1ccc2c(c1)OCO2,756
20,CCn1cc(CC(=O)N2CCC(N3CCCCC3)CC2)c2cccnc21,553
21,Cc1cccc(S(=O)(=O)N2CC3CN(C(=O)C4CCCCC4)CC(C2)O3)c1,865

row,SMILES,RP-LC retention time [s]
1,O=c1c2cc(-c3ccc(Br)cc3)nn2cnn1Cc1nc(-c2ccccc2)no1,1190
2,COc1ccc2c(C)cc(SCC(=O)Nc3c(C)cccc3C)nc2c1,995
3,CCN(CC)CCOc1ccc(C(=C(Cl)c2ccccc2)c2ccccc2)cc1,1010
4,Cc1cccc(-c2nnc(C)c(N3CCCC3)n2)c1,656
5,CCc1nn(CC)c(=O)c2cc(S(=O)(=O)NCc3cccc(Cl)c3)cn12,982
6,COc1ccc(Nc2c(-c3ccc(C)cc3)nc3cnccn23)cc1,855
7,CC(C)N1C(=O)c2cccnc2Sc2cc(NC(=O)COc3ccccc3)ccc21,889
8,Cc1ccc(NC(=O)c2cccc([N+](=O)[O-])c2O)c(C)c1,951
9,CCN1c2ccc(C)cc2C(=O)NC12CCN(C(=O)c1cccc(F)c1)CC2,835
10,Nc1ccc(Br)cc1Br,1000
11,CCCC(=O)N1CCc2c([nH]c3ccccc23)C1c1ccc(F)cc1 (stereo not given),698
12,O=C(Nc1ccc(C(F)(F)F)cc1)NC1CCN(c2ccc(F)cc2)C1=O (stereo not given),920
13,Cc1ccc2c(c1)N(S(C)(=O)=O)CCC(C(=O)Nc1ccccc1F)O2 (stereo not given),918
14,CCn1nc(C)n2cc(S(=O)(=O)NCc3ccc(F)cc3)cc2c1=O,836
15,CCOc1ccc(-c2noc(Cn3c(=O)n(-c4ccccc4F)c(=O)c4sccc43)n2)cc1OC,945
16,O=C(Cc1csc(NC(=O)C2CCC(=O)N2)n1)NCCC1=CCCCC1 (stereo not given),643
17,CCN1CCCn2cc(S(=O)(=O)N(C)c3ccc(C)cc3)cc2C1=O,756
18,CCOc1ccc(NC(=O)CSc2nc(N3CCCCC3)nc3ccccc23)cc1,745
19,CCC(CC)N1CCN(C(=O)c2ccc3[nH]c4c(c3c2)CN(C(=O)C2CCC2)CC4)CC1,607
20,COC(=O)C(C)(N)Cc1ccc(O)cc1 (stereo not given),573
21,Cc1ccc(C)c(N2CCN(c3cc(C(=O)O)c4cc(NS(C)(=O)=O)ccc4n3)CC2)c1,1110

row,SMILES,RP-LC retention time [s]
1,CCc1sc(NC(=O)CCSc2ccccc2)nc1-c1ccccc1,1210
2,COc1cccc(S(=O)(=O)N2CCC(Cc3nncn3C)C2)c1 (stereo not given),630
3,CCC(C)C(NC(=O)Cc1ccc(Cl)cc1)C(=O)Nc1nc2ccccc2[nH]1 (stereo not given),785
4,CCOC(=O)C(NC(C)=O)(C(=O)OCC)C(C)c1c[nH]c2ccccc12 (stereo not given),847
5,Cc1ccccc1-c1ccc(N2CCCC(C(=O)NC(C)CCc3ccccc3)C2)nn1 (stereo not given),817
6,Cc1nc(-c2ccc3c(c2)n(CC(=O)NC(C)(C)C)c(=O)n3C(C)C)no1,810
7,COC(=O)c1c(C)[nH]c(C(=O)N2CCC(CC(=O)NCCN3CCCCC3)CC2)c1C,584
8,CCCN(CC1CCOC1)S(=O)(=O)Cc1ccccc1F (stereo not given),878
9,Cc1ccc(Cl)cc1NC(=O)N1CCN(c2ccc(=O)n(-c3ccccc3)n2)CC1,838
10,COc1ccc(OC)c(NC(=O)c2cc(C(C)(C)C)n3nccc3n2)c1,768
11,O=C(Cn1nc(C2CC2)cc1C(=O)N1CCCC1)N1CCN(c2ccc(Cl)cc2)CC1,845
12,Cc1cnc(-c2ccncc2)n1C1CCN(C(=O)C2(C)CCCCC2)C1 (stereo not given),626
13,CC(C)n1c(=O)oc2cc(-c3noc(/C=C/c4ccccc4)n3)ccc21,1200
14,COC(=O)C(Cc1ccccc1)NC(=O)Nc1c(-c2ccc(C)cc2)nc2ccccn12 (stereo not given),686
15,CC(C)(C)OC(=O)N1CCN(c2ncc(S(=O)(=O)c3ccc(Cl)cc3)c(N)n2)CC1,1060
16,COc1ccc(Cc2nnc(N)o2)cc1,596
17,CC1(C(=O)NC2CCCC2)CN(S(C)(=O)=O)CC(=O)N1Cc1ccc(Cl)cc1 (stereo not given),834
18,O=C(Cc1ccccc1F)NC1CCN(c2cc(-c3ccccc3)[nH]n2)C1 (stereo not given),688
19,O=C(c1cccs1)N1CCN(c2[nH]ncc2-c2ccccc2)CC1,808
20,Cc1sc(-c2cc(C(F)(F)F)on2)cc1S(=O)(=O)N1CCN(c2ccccn2)CC1,891
21,CCCC[C@@]1(C2CCCC2)Cc2cc(OCC(=O)O)c(Cl)c(Cl)c2C1=O,1320

# Other lines, results leading:
row,RP-LC retention time [s],SMILES
1,936,CC(C)c1noc(C2Cc3ccccc3N2C(=O)Nc2ccc3c(c2)OCCO3)n1 (stereo not given)
2,713,Cc1ccc(C)c(Sc2ccc(N3CCC(C(=O)NC4CC4)CC3)nn2)c1
3,1090,CCCn1cc(C(=O)NCc2ccccc2F)c(S(=O)(=O)N2CCC(C)CC2)n1
4,842,Cc1ccc2[nH]cc(CCN3CC(C(=O)Nc4cccc(F)c4)CC3=O)c2c1 (stereo not given)
5,694,Cc1noc(-c2cccc(OC3CN(C(=O)C4CCOC4)C3)c2)n1 (stereo not given)
6,600,CCN(CC)CCSc1ccc(C(=O)N2CCN(c3ncccn3)CC2)cn1
7,750,Cc1ccc(NC(=O)N2CCc3c(c(-c4nc(C)no4)nn3C)C2)cc1
8,618,Cc1ccc(CNC(=O)Cn2c(N3CCCC3)nc(C)cc2=O)cc1
9,596,CCCNC(=O)c1ccc2ncn(C)c(=O)c2c1
10,815,CCCNC(=O)c1cn(-c2ccc(-c3nc(C4CC4)no3)cn2)cn1
11,575,COc1cccc(CNC(=O)CCC2CCN(c3cc(NC4CC4)ncn3)CC2)c1
12,807,Cc1noc(-c2ccc(=O)n(Cc3ccc(F)cc3)n2)n1
13,662,Cc1nc(-c2noc(-c3cccnc3)n2)cn1CC(=O)NCc1cccs1
14,929,CN(C)CCNC(=O)C1CCCN(c2ccc(=O)n(-c3cccc(Cl)c3)n2)C1 (stereo not given)
15,1210,Cc1nc2cc(-c3noc(-c4cccc(Cl)c4)n3)ccc2o1
16,802,CCN1C(=O)COc2ccc(-c3noc(-c4cnccn4)n3)cc21
17,722,O=C(NCc1ccc(F)cc1F)C1CCCN(c2ccc(-c3ccccc3)nn2)C1 (stereo not given)
18,1160,CC1CCC(NC(=O)c2nnn(Cc3cccc(F)c3)c2-n2cccc2)CC1 (stereo not given)
19,836,Cc1noc(-c2ccnc(-n3ncc(C(=O)NC4CCCC4)c3C)c2)n1
20,1080,CCOc1ccccc1-c1noc(-c2nnn3c2COC(c2cccc(OC)c2)C3)n1 (stereo not given)
21,808,Cc1ccc(Cn2c(=O)n(CCNC(=O)c3cccs3)c3ncccc32)cc1
22,1200,CCOc1nc2ccccc2nc1N1CCCC(C(=O)Nc2ccccc2F)C1 (stereo not given)
23,882,CCc1nn2c(CNC(=O)c3cccn3C)c(-c3ccccc3)nc2s1
24,657,CN1C(=O)c2cccn2CC1C(=O)NCc1ccc2c(c1)OCO2 (stereo not given)
25,858,COc1ccccc1-c1noc(C2CCCN2C(=O)NC2CCCCC2)n1 (stereo not given)
26,934,Cn1cccc1C(=O)N1CC(c2nc(CCOCC3CCCC3)no2)C1
27,851,CC(C)CCNC(=O)c1nc(Nc2ccc(F)cc2)c2ccccc2n1
